Literature values as cited in article PMC7001544 (JHEP Reports, 2019).

Cc1c(C)c2c(c(C)c1O)CCC(C)(COc1ccc(CC3SC(=O)NC3=O)cc1)O2 (centres unmarked) [troglitazone]
effect on internalization and infection of HBV (HBV): interfere with internalization and infection of HBV
effect on NTCP oligomerization (NTCP): prevent NTCP oligomerization
